Test results: patent US10253027B2, “Aryl lactam kinase inhibitors” (Bristol-Myers Squibb Company, priority 2013, dated 2019)

The compounds below were run against T1, GST-Xa-hAAK1 (Homo sapiens, UniProt Q2M2I8) (assay: AAK1 Kinase Assay). Details: IC50 (nM), ATP 22 μM; 3 hours at room temperature; Caliper LabChip 3000.
T1 construct: made in house
Assay type: biochemical
Procedure: The assays were performed in U-bottom 384-well plates. […] The reactions were initiated by the combination of bacterially expressed, GST-Xa-hAAK1 with substrates and test compounds. The reactions were incubated at room temperature for 3 hours and terminated by adding 60 μl of 35 mM EDTA buffer to each sample. The reactions were analyzed on the Caliper LabChip 3000 (Caliper, Hopkinton, Mass.) by electrophoretic separation of the fluorescent substrate and phosphorylated product. […] Compounds were dissolved at 10 mM in dimethylsulfoxide (DMSO) and evaluated at eleven concentrations. IC50 values were derived by non-linear regression analysis.

T1 sequence (Q2M2I8 whole entry): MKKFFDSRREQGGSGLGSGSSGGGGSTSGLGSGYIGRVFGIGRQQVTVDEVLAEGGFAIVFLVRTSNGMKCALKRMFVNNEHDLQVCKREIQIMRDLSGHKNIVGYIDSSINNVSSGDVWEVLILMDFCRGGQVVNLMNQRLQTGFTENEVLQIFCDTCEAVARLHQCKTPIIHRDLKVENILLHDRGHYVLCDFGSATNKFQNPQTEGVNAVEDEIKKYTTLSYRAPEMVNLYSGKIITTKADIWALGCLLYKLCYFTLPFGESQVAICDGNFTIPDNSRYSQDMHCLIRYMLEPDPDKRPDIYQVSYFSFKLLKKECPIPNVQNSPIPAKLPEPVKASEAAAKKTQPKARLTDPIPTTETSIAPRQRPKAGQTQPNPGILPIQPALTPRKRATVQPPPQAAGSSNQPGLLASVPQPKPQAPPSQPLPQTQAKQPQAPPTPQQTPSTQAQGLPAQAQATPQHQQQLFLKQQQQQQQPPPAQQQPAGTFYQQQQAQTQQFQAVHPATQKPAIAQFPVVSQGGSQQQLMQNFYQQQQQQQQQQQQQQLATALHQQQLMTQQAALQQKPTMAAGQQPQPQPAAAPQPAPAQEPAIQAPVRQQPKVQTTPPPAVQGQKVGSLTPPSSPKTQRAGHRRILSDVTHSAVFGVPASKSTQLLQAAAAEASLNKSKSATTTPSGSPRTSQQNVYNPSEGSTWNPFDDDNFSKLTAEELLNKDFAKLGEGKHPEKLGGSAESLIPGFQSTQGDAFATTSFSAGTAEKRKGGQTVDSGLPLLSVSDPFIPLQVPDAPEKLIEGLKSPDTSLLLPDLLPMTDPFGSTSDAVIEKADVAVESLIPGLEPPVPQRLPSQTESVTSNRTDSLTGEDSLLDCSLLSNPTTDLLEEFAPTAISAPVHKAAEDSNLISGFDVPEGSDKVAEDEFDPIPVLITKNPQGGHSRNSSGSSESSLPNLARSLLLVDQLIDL

Row | Structure (SMILES) | IC50
1 | O=C(Nc1ccc(-c2ccncc2)cc1)C1NCCCC1C(F)(F)F (mixture of isomers) [Example 120, N-(4-(Pyridin-4-yl)phenyl)-3-(trifluoromethyl)piperidine-2-carboxamide] | 220 nM
2 | CC1CCCCC1C(N)C(=O)Nc1ccc(-c2ccncc2)cc1 (mixture of isomers) [Example 121, 2-Amino-2-(2-methylcyclohexyl)-N-(4-(pyridin-4-yl)phenyl)acetamide] | 140 nM
3 | COc1cc(NC(=O)C2NCCCC2C(C)C)ccc1-c1cnco1 (single isomer, unassigned) [Example 87, 3-Isopropyl-N-(3-methoxy-4-(oxazol-5-yl)phenyl)piperidine-2-carboxamide] | 280 nM
4 | COc1cc(NC(=O)C2NCCCC2C(F)(F)F)ccc1-c1cnco1 (single isomer, unassigned) [Example 91, N-(3-Methoxy-4-(oxazol-5-yl)phenyl)-3-(trifluoromethyl)piperidine-2-carboxamide] | 417 nM
5 | COc1cc(NC(=O)[C@H](N)CC2CCC2)c(F)cc1-c1cnco1 (stereo in doubt) [Example 94, 2-Amino-3-cyclobutyl-N-(2-fluoro-5-methoxy-4-(oxazol-5-yl)phenyl)propanamide] | 750 nM
6 | COc1cc(NC(=O)[C@H](N)CC2CC2)c(F)cc1-c1cnco1 (stereo in doubt) [Example 95, 2-Amino-3-cyclopropyl-N-(2-fluoro-5-methoxy-4-(oxazol-5-yl)phenyl)propanamide] | 420 nM
7 | COc1cc(NC(=O)[C@H](N)CC(C)(C)C)c(F)cc1-c1cnco1 (stereo in doubt) [Example 97, 2-Amino-N-(2-fluoro-5-methoxy-4-(oxazol-5-yl)phenyl)-4,4-dimethylpentanamide] | 630 nM
8 | COc1cc(NC(=O)[C@H]2CCCN2)ccc1-c1cnco1 [Example 2, (R)—N-(3-Methoxy-4-(oxazol-5-yl)phenyl)pyrrolidine-2-carboxamide] | 346 nM
9 | COc1cc(NC(=O)[C@H](N)CC2CC2)ccc1-c1cnco1 [Example 9, (R)-2-Amino-3-cyclopropyl-N-(3-methoxy-4-(oxazol-5-yl)phenyl)propanamide] | 115 nM
10 | CCN(C(=O)[C@H](N)CC(C)C)c1ccc(-c2cnco2)c(OC)c1 [Example 10, (R)-2-Amino-N-ethyl-N-(3-methoxy-4-(oxazol-5-yl)phenyl)-4-methylpentanamide] | 5010 nM
11 | CC(C)C[C@@H](N)C(=O)Nc1ccc(-c2cnco2)c(C(F)(F)F)c1 [Example 11, (R)-2-Amino-4-methyl-N-(4-(oxazol-5-yl)-3-(trifluoromethyl)phenyl)pentanamide] | 1520 nM
12 | Cc1cc(NC(=O)[C@H](N)CC(C)C)ccc1-c1cnco1 [Example 13, (R)-2-Amino-4-methyl-N-(3-methyl-4-(oxazol-5-yl)phenyl)pentanamide] | 248 nM
13 | CC(C)C[C@@H](N)C(=O)Nc1ccc(-c2cnco2)c(-c2ccsc2)c1 [Example 15, (R)-2-Amino-4-methyl-N-(4-(oxazol-5-yl)-3-(thiophen-3-yl)phenyl)pentanamide] | 1370 nM
14 | COc1cc(NC(=O)[C@H](N)CC(C)C)ccc1-c1cncs1 [Example 21, (R)-2-Amino-N-(3-methoxy-4-(thiazol-5-yl)phenyl)-4-methylpentanamide] | 275 nM
15 | COc1cc(NC(=O)[C@H](N)CC(C)C)ccc1-c1ccnnc1 [Example 22, (R)-2-Amino-N-(3-methoxy-4-(pyridazin-4-yl)phenyl)-4-methylpentanamide] | 140 nM
16 | COc1cc(NC(=O)[C@H](N)CC(C)C)ccc1-c1nncs1 [Example 23, (R)-2-Amino-N-(3-methoxy-4-(1,3,4-thiadiazol-2-yl)phenyl)-4-methylpentanamide] | 5100 nM
17 | COc1cc(NC(=O)[C@H](N)CC(C)C)ccc1-n1ccnc1 [Example 25, (R)—N-(4-(1H-Imidazol-1-yl)-3-methoxyphenyl)-2-amino-4-methylpentanamide] | 3250 nM
18 | COc1cc(NC(=O)[C@H](N)CC(C)C)ccc1-n1cncn1 [Example 26, (R)-2-Amino-N-(3-methoxy-4-(1H-1,2,4-triazol-1-yl)phenyl)-4-methylpentanamide] | 955 nM
19 | COc1c(-c2cnco2)ccc(NC(=O)[C@H](N)CC(C)C)c1Cl [Example 28, (R)-2-Amino-N-(2-chloro-3-methoxy-4-(oxazol-5-yl)phenyl)-4-methylpentanamide] | 709 nM
20 | COc1c(-c2cnco2)cc(Cl)c(NC(=O)[C@H](N)CC(C)C)c1Cl [Example 29, (R)-2-Amino-N-(2,6-dichloro-3-methoxy-4-(oxazol-5-yl)phenyl)-4-methylpentanamide] | 344 nM
21 | COc1cc(NC(=O)C(CC(C)C)N2CCC(N)C2)ccc1-c1cnco1 (stereo not drawn) [Example 30, 2-(3-Aminopyrrolidin-1-yl)-N-(3-methoxy-4-(oxazol-5-yl)phenyl)-4-methylpentanamide] | 590 nM

These reach a lower IC50. Values come first.

Row | IC50 | Structure (SMILES)
22 | 110 nM | COc1cc(NC(=O)C2NCCC2C(C)C)ccc1-c1cnco1 (single isomer, unassigned) [Example 38, 3-Isopropyl-N-(3-methoxy-4-(oxazol-5-yl)phenyl)pyrrolidine-2-carboxamide]
23 | 104 nM | COc1cc(NC(=O)[C@@H](N)CC(C)C)ccc1-c1cnco1 [Example 5, (S)-2-Amino-N-(3-methoxy-4-(oxazol-5-yl)phenyl)-4-methylpentanamide]
24 | 100 nM | CC(C)C[C@@H](N)C(=O)Nc1ccc(-c2cnco2)c(O)c1 [Example 16, (R)-2-Amino-N-(3-hydroxy-4-(oxazol-5-yl)phenyl)-4-methylpentanamide]
25 | 97 nM | CCc1cc(NC(=O)[C@H](N)CC(C)C)ccc1-c1cnco1 [Example 14, (R)-2-Amino-N-(3-ethyl-4-(oxazol-5-yl)phenyl)-4-methylpentanamide]
26 | 90 nM | COc1cc(NC(=O)C(N)CCC(C)C)ccc1-c1cnco1 (stereo not drawn) [Example 8, 2-Amino-N-(3-methoxy-4-(oxazol-5-yl)phenyl)-5-methylhexanamide]
27 | 78 nM | COc1cc(NC(=O)[C@H](N)CC2CCC2)ccc1-c1cnco1 [Example 6, (R)-2-Amino-3-cyclobutyl-N-(3-methoxy-4-(oxazol-5-yl)phenyl)propanamide]
28 | 74 nM | COc1cc(NC(=O)C2NCCCC2C(F)(F)F)ccc1-c1cnco1 (single isomer, unassigned) [Example 92, N-(3-Methoxy-4-(oxazol-5-yl)phenyl)-3-(trifluoromethyl)piperidine-2-carboxamide]
29 | 66 nM | CCOc1cc(NC(=O)[C@H](N)CC(C)C)ccc1-c1cnco1 [Example 17, (R)-2-Amino-N-(3-ethoxy-4-(oxazol-5-yl)phenyl)-4-methylpentanamide]
30 | 64 nM | NC(C(=O)Nc1ccc(-c2ccncc2)cc1)C1CCCCC1C(F)(F)F (mixture of isomers) [Example 122, 2-Amino-N-(4-(pyridin-4-yl)phenyl)-2-(2-(trifluoromethyl)cyclohexyl)acetamide]
31 | 64 nM | COc1cc(NC(=O)C(N)CC(C)C)ccc1-c1cnco1 (stereo not drawn) [Example 7, 2-Amino-N-(3-methoxy-4-(oxazol-5-yl)phenyl)-4-methylpentanamide]
32 | 63 nM | COc1cc(NC(=O)[C@H](N)CC(C)C)ccc1-c1ccncc1 [Example 20, (R)-2-Amino-N-(3-methoxy-4-(pyridin-4-yl)phenyl)-4-methylpentanamide]
33 | 56 nM | COc1cc(NC(=O)[C@H](N)CC(C)C)ccc1-c1cn[nH]n1 [Example 19, (R)-2-Amino-N-(3-methoxy-4-(2H-1,2,3-triazol-4-yl)phenyl)-4-methylpentanamide]
34 | 55 nM | CC(C)C[C@@H](N)C(=O)Nc1ccc(-c2cnco2)c(Br)c1 [Example 12, (R)-2-Amino-N-(3-bromo-4-(oxazol-5-yl)phenyl)-4-methylpentanamide]
35 | 54 nM | COc1cc(NC(=O)[C@H](N)CC(C)C)c(Cl)cc1-c1cnco1 [Example 27, (R)-2-Amino-N-(2-chloro-5-methoxy-4-(oxazol-5-yl)phenyl)-4-methylpentanamide]
36 | 53 nM | COc1cc(NC(=O)[C@H](N)C2CCCC2)ccc1-c1cnco1 [Example 3, (R)-2-Amino-2-cyclopentyl-N-(3-methoxy-4-(oxazol-5-yl)phenyl)acetamide]
37 | 48 nM | COc1cc(NC(=O)C2NCCC2C(C)C)ccc1-c1cnco1 (single isomer, unassigned) [Example 36, 3-Isopropyl-N-(3-methoxy-4-(oxazol-5-yl)phenyl)pyrrolidine-2-carboxamide]
38 | 33 nM | CC(C)C1CCCNC1C(=O)Nc1ccc(-c2ccncc2)cc1 (mixture of isomers) [Example 119, 3-Isopropyl-N-(4-(pyridin-4-yl)phenyl)piperidine-2-carboxamide]
39 | 29 nM | COc1cc(NC(=O)C2NCCC2C(C)C)ccc1-c1cnco1 (single isomer, unassigned) [Example 39, 3-Isopropyl-N-(3-methoxy-4-(oxazol-5-yl)phenyl)pyrrolidine-2-carboxamide]
40 | 20 nM | COc1cc(NC(=O)C(N)C2CCCCC2C)ccc1-c1cnco1 (mixture of isomers) [Example 93, 2-Amino-N-(3-methoxy-4-(oxazol-5-yl)phenyl)-2-(2-methylcyclohexyl)acetamide]
41 | 19 nM | COc1cc(NC(=O)[C@H](N)CC(C)C)ccc1-c1cn[nH]c1 [Example 24, (R)-2-Amino-N-(3-methoxy-4-(1H-pyrazol-4-yl)phenyl)-4-methylpentanamide]
42 | 8 nM | COc1cc(NC(=O)C2NCCC2C(C)C)ccc1-c1cnco1 (single isomer, unassigned) [Example 37, 3-Isopropyl-N-(3-methoxy-4-(oxazol-5-yl)phenyl)pyrrolidine-2-carboxamide]
